Source: ChEMBL document CHEMBL5625204, “Synthesis and pharmacodynamic evaluation of naphthalene derivatives against influenza A virus in vitro and in vivo” (Eur J Med Chem, 2023)
The source made the active and inactive calls. The rule behind the calls is not given here.

How the values were obtained:
[1] = Selectivity index, ratio of CC50 for dog MDCK cells to EC50 for antiviral activity against Influenza A virus H1N1 (A/Weiss/43) infected in MDCK cells treated for 2 hrs during viral adsorption and measured after 72 hrs; assay type: toxicity, cell-based; conditions: read-out: Ratio CC50/EC50
Influenza A virus [2] = test: Antiviral activity against Influenza A virus H1N1 (A/Weiss/43) infected in MDCK cells assessed as reduction of viral replication treated for 2 hrs during viral adsorption and measured after 72 hrs by TCID50 method; assay type: functional, organism-based
Influenza A virus [3] = test: Antiviral activity against Influenza A virus H1N1 (A/Weiss/43)-infected in BALB/c mouse assessed as reduction in viral NP protein expression in lungs at 25 to 100 mg/kg/day administered intranasally for 6 days starting from 3 hrs post-viral infection by immunohistochemistry; assay type: functional, organism-based; conditions: dose 25-100 mg/kg/day, route nas, time 6.0 day
Influenza A virus [4] = test: Antiviral activity against Influenza A virus H1N1 (A/Weiss/43)-infected in BALB/c mouse assessed as reduction in viral M mRNA expression in lungs at 25 to 100 mg/kg/day administered intranasally for 2 to 6 days starting from 3 hrs post-viral infection by qRT-PCR analysis; assay type: functional, organism-based; conditions: dose 25-100 mg/kg/day, route nas, time 2-6 day
Influenza A virus [5] = test: Antiviral activity against Influenza A virus H1N1 (A/Weiss/43)-infected in BALB/c mouse assessed as reduction in viral NP mRNA expression in lungs at 25 to 100 mg/kg/day administered intranasally for 2 to 6 days starting from 3 hrs post-viral infection by qRT-PCR analysis; assay type: functional, organism-based; conditions: dose 25-100 mg/kg/day, route nas, time 2-6 day
Influenza A virus [6] = test: Antiviral activity against Influenza A virus H1N1 (A/Weiss/43) infected in MDCK cells assessed as reduction in cell pathological changes at 25 to 50 uM by microscopic analysis; assay type: functional, organism-based; conditions: dose 25-50 µM
Influenza A virus [7] = test: Antiviral activity against Influenza A virus H1N1 (A/Virginia/ATCC2/2009) infected in MDCK cells assessed as reduction of viral replication incubated for 72 hrs by TCID50 method; assay type: functional, organism-based
[8] = Selectivity index, ratio of CC50 for dog MDCK cells to EC50 for antiviral activity against Influenza A virus H3N2 (A/California/2004) infected in MDCK cells; assay type: toxicity, cell-based; conditions: read-out: Ratio CC50/EC50
Influenza A virus [9] = test: Antiviral activity against Influenza A virus H1N1 infected in dog MDCK cells assessed as decrease in apoptosis by measuring proportion of viable cells at 25 uM measured after 72 hrs by AnnexinV-FITC/PI staining based flow cytometry (reference value: 62.9%); assay type: functional
Influenza A virus [10] = test: Antiviral activity against Influenza A virus H1N1 infected in dog MDCK cells assessed as decrease in apoptosis by measuring proportion of viable cells at 50 uM measured after 72 hrs by AnnexinV-FITC/PI staining based flow cytometry (reference value: 62.9%); assay type: functional
Influenza A virus [11] = test: Antiviral activity against Influenza A virus H1N1 infected in dog MDCK cells assessed as decrease in apoptosis by measuring proportion of early apoptotic cells at 50 uM measured after 72 hrs by AnnexinV-FITC/PI staining based flow cytometry (reference value: 24.3%); assay type: functional; parameters: scale not given: the % may be the effect or the level left
Influenza A virus [12] = test: Antiviral activity against Influenza A virus H1N1 infected in dog MDCK cells assessed as decrease in apoptosis by measuring proportion of necrotic cells at 50 uM measured after 72 hrs by AnnexinV-FITC/PI staining based flow cytometry (reference value: 2.47%); assay type: functional; parameters: scale not given: the % may be the effect or the level left
[13] = Toxicity in dog MDCK cells assessed as proportion of viable cells at 50 uM measured after 72 hrs by AnnexinV-FITC/PI staining based flow cytometry (reference value: 90.6%); assay type: cell-based, Canis lupus familiaris; conditions: read-out: Activity
[14] = Toxicity in dog MDCK cells assessed as proportion of early apoptotic cells at 50 uM measured after 72 hrs by AnnexinV-FITC/PI staining based flow cytometry (reference value: 4.51%); assay type: cell-based, Canis lupus familiaris
[15] = Toxicity in dog MDCK cells assessed as proportion of necrotic cells at 50 uM measured after 72 hrs by AnnexinV-FITC/PI staining based flow cytometry (reference value: 1.4%); assay type: cell-based, Canis lupus familiaris
Influenza A virus [16] = test: Antiviral activity against Influenza A virus H1N1 infected in human A549 cells assessed as decrease in apoptosis by measuring decrease in cleaved PARP protein expression at 25 to 50 uM measured after 24 hrs by western blot analysis; assay type: functional, organism-based; conditions: dose 25-50 µM
Influenza A virus [17] = test: Antiviral activity against Influenza A virus H1N1 infected in human A549 cells assessed as decrease in RIG-1 pathway related gene expression by measuring decrease in IRF7 gene expression at 25 to 50 uM measured after 24 hrs by qRT-PCR analysis; assay type: functional, organism-based; conditions: dose 25-50 µM
Influenza A virus [18] = test: Antiviral activity against Influenza A virus H1N1 infected in human A549 cells assessed as decrease in apoptosis inducing factor gene expression by measuring decrease in TRAIL gene expression at 25 to 50 uM measured after 24 hrs by qRT-PCR analysis; assay type: functional, organism-based; conditions: dose 25-50 µM
Influenza A virus [19] = test: Antiviral activity against Influenza A virus H1N1 infected in human A549 cells assessed as decrease in cytokine gene expression by measuring decrease in IL-1 beta gene expression at 25 to 50 uM measured after 24 hrs by qRT-PCR analysis; assay type: functional, organism-based; conditions: dose 25-50 µM
Influenza A virus [20] = test: Antiviral activity against Influenza A virus H1N1 infected in human A549 cells assessed as decrease in cytokine gene expression by measuring decrease in TNF-alpha gene expression at 25 to 50 uM measured after 24 hrs by qRT-PCR analysis; assay type: functional, organism-based; conditions: dose 25-50 µM
Influenza A virus [21] = test: Antiviral activity against Influenza A virus H1N1 infected in human A549 cells assessed as decrease in cytokine gene expression by measuring decrease in IFN-beta gene expression at 25 to 50 uM measured after 24 hrs by qRT-PCR analysis; assay type: functional, organism-based; conditions: dose 25-50 µM
Influenza A virus [22] = test: Antiviral activity against Influenza A virus H1N1 (A/Weiss/43)-infected in BALB/c mouse assessed as improvement in body weight at 25 to 100 mg/kg/day administered intranasally for 6 days starting from 3 hrs post-viral infection; assay type: functional, organism-based; conditions: dose 25-100 mg/kg/day, route nas, time 6.0 day
Influenza A virus [23] = test: Antiviral activity against Influenza A virus H1N1 (A/Weiss/43)-infected in BALB/c mouse assessed as reduction in Mx1 gene expression in lungs at 25 to 100 mg/kg/day administered intranasally for 6 days starting from 3 hrs post-viral infection by qRT-PCR analysis; assay type: functional, organism-based; conditions: dose 25-100 mg/kg/day, route nas, time 6.0 day
Influenza A virus [24] = test: Antiviral activity against Influenza A virus H1N1 (A/Weiss/43)-infected in BALB/c mouse assessed as reduction in RIG-1 gene expression in lungs at 25 to 100 mg/kg/day administered intranasally for 6 days starting from 3 hrs post-viral infection by qRT-PCR analysis; assay type: functional, organism-based; conditions: dose 25-100 mg/kg/day, route nas, time 6.0 day
Influenza A virus [25] = test: Antiviral activity against Influenza A virus H1N1 (A/Weiss/43)-infected in BALB/c mouse assessed as reduction in TLR-7 gene expression in lungs at 25 to 100 mg/kg/day administered intranasally for 6 days starting from 3 hrs post-viral infection by qRT-PCR analysis; assay type: functional, organism-based; conditions: dose 25-100 mg/kg/day, route nas, time 6.0 day
Influenza A virus [26] = test: Antiviral activity against Influenza A virus H1N1 (A/Weiss/43)-infected in BALB/c mouse assessed as reduction in MyD88 gene expression in lungs at 25 to 100 mg/kg/day administered intranasally for 6 days starting from 3 hrs post-viral infection by qRT-PCR analysis; assay type: functional, organism-based; conditions: dose 25-100 mg/kg/day, route nas, time 6.0 day
Influenza A virus [27] = test: Antiviral activity against Influenza A virus H1N1 (A/Weiss/43)-infected in BALB/c mouse assessed as reduction in IL-8 gene expression in lungs at 25 to 100 mg/kg/day administered intranasally for 6 days starting from 3 hrs post-viral infection by qRT-PCR analysis; assay type: functional, organism-based; conditions: dose 25-100 mg/kg/day, route nas, time 6.0 day

O=[N+]([O-])c1ccc(S(=O)(=O)N(Cc2ccccc2)c2cccc3ccccc23)cc1
selectivity ratio at 72 h [1]: > 131
EC50 (Influenza A virus [2]): 6.09 µM
Activity (Influenza A virus [3]): Active
Activity (Influenza A virus [4]): Active
Activity (Influenza A virus [5]): Active
Activity (Influenza A virus [6]): Active
EC50 (Influenza A virus [7]): 3.34 µM
selectivity ratio [8]: > 121
Activity (Influenza A virus [9]): 95.4%
Activity (Influenza A virus [10]): 95.4%
Activity (Influenza A virus [11]): 2.93%
Activity (Influenza A virus [12]): 0.6%
viability at 72 h, 50 µM [13]: 96.9%
Activity [14]: 1.56%
Activity [15]: 0.82%
inhibition (Influenza A virus [16]): Active
inhibition (Influenza A virus [17]): Active
inhibition (Influenza A virus [18]): Active
inhibition (Influenza A virus [19]): Active
inhibition (Influenza A virus [20]): Active
inhibition (Influenza A virus [21]): Active
Activity (Influenza A virus [22]): Active
Activity (Influenza A virus [23]): Active
Activity (Influenza A virus [24]): Active
Activity (Influenza A virus [25]): Active
Activity (Influenza A virus [26]): Active
Activity (Influenza A virus [27]): Active
